Laboratory results as given in patent US20120165319A1, “INHIBITORS OF INTERLEUKIN-1 BETA CONVERTING ENZYME” (VERTEX PHARMACEUTICALS INCORPORATED, priority 1995, published 2012).
pIC50, pKi: −log10 of the molar value. Where two headings read alike, the source gives them in different places.

Columns and labels:
[1] = test system: IL-1β, human peripheral blood mononuclear cells (PBMC); test: PBMC cell assay: IL-1β assay with human PBMC or enriched adherent mononuclear cells, LPS-stimulated; format: cell-based; conditions: Homo sapiens, PBMC
Procedure, shortened: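 Mature IL-1β is measured by ELISA in supernatants after 16–18 hr at 37 °C, 5% CO2, with LPS (5 ng/ml final) and test compound (0.1% DMSO final). Cells are human PBMC (6×10^6 cells/ml) or plate-adherent mononuclear cells (2.5−3.0×10^5 per well), and the 5–6 compound concentrations span the ICE Ki.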

[2] = test system: IL-1β production, LPS-challenged mice; test: In vivo acute assay for efficacy as anti-inflammatory agent: LPS-induced IL-1β production in mice; parameters: species or system mouse; conditions: Mus musculus, po, LPS challenged mice, compound PO, 50 mg/kg, read-out: percent inhibition of IL-1β production
Procedure, shortened: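 Serum IL-1β was measured by ELISA 7 h after an IP dose of 20 mg/kg LPS in CD1 mice, n=6 per group. Compounds in olive oil/DMSO/ethanol 90:5:5 were injected IP 1 h post-LPS (some analogs were dosed at challenge), and separate groups received 50 mg/kg by oral gavage.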

IL-1β, human whole blood = test: Whole blood assay for IL-1β production; format: cell-based; conditions: Homo sapiens, Table 17; read-out: Whole human blood IC50
Procedure, shortened: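 IL-1β was quantified by ELISA in plasma diluted 1:200. The plasma came from EDTA-anticoagulated human whole blood incubated at 30 °C for 16-18 h with LPS (final 5.0 ng/ml) plus a saline serial dilution of compound. Controls were no-LPS, no-inhibitor and highest-vehicle.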

[3] = Pharmacokinetic studies in the mouse (i.v. clearance, plasma levels); format: in vivo; conditions: CD-1, plasma, iv, mouse, 25 mg/kg
Description: Pharmacokinetic Studies in the Mouse
Sample Preparation and Dosing
Compounds were dissolved in sterile TRIS solution (0.02M or 0.05M) at a concentration of 2.5 mg/ml. Where necessary to ensure a complete solution, the sample was first dissolved in a minimum of dimethylacetamide (maximum of 5% of total solution volume) then diluted with the TRIS solution.
The drug solution was administered to CD-1 mice (Charles River Laboratories—26-31 g) via the tail vein at a dose volume of 10 ml/kg giving a drug dose of 25 mg/kg.
Mice were dosed in groups of 5 for each timepoint (generally from 2 minutes to 2 hours) then at the appropriate time the animals were anaesthetised with halothane and the blood collected into individual heparinized tubes by jugular severance. The blood samples were cooled to 0° C. then the plasma separated and stored at −20° C. until assayed.
Drug concentration in the plasma samples were determined by HPLC analysis with UV or MS (ESP) detection. Reverse phase chromatography was employed using a variety of bonded phases from C1 to C18 with eluents composed of aqueous buffer/acetonitrile mixtures run under isocratic conditions.
Quantitation was by external standard methods with calibration curves constructed by spiking plasma with drug solutions to give concentrations in the range of 0.5 to 50 μg/ml.
Prior to analysis the plasma samples were deproteinated by the addition of acetonitrile, methanol, trichloroacetic acid or perchloric acid followed by centrifugation at 10,000 g for 10 minutes. Sample volumes of 20 μl to 50 μl were injected for analysis.
The drug was dissolved in sterile 0.02M Tris to give a 2.5 mg/ml solution which was administered to […] of 5 male CD-1 mice via the tail vein at a dose of 25 mg/kg. At each of the following timepoints: 2, 5, 10, 15, 20, 30, 45, 60, 90 and 120 minutes a group of animals was anaesthetised and the blood collected into heparinized tubes. After separation the plasma was stored at −20° C. until assayed.
Aliquots of plasma (150 μl) were treated with 5% perchloric acid (5 μl) then mixed by vortexing and allowed to stand for 90 minutes prior to centrifugation. The resulting supernatant was separated and 20 μl was injected for HPLC analysis.
Aliquots of plasma (100 μl) were diluted with acetonitrile (100 μl) then mixed by vortexing for 20 seconds before centrifugation for 10 minutes. The resulting supernatant was separated and 20 μl was injected for HPLC analysis.

ICE = biological target: T1, ICE (Homo sapiens, UniProt P29466); test: Enzyme assay with UV-visible substrate (visible ICE assay, Succinyl-Tyr-Val-Ala-Asp-pNitroanilide); format: biochemical
T1 sequence (P29466 120-297 limits assumed): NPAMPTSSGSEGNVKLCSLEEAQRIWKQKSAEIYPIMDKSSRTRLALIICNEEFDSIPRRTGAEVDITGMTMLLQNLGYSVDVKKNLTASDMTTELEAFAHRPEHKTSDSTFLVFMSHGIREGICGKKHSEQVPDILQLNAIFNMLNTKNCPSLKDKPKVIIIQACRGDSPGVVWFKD
T1 sequence (P29466 317-404 limits assumed): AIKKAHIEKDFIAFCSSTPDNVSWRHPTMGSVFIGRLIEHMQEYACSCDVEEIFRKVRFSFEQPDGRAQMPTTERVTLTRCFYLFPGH
Procedure, shortened: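 Read-out is the rate of pNA chromophore release (mOD/min, linear fit) monitored at 405-603 nm over 20 min at 37° C. Substrate was succinyl-Tyr-Val-Ala-Asp-pNitroanilide, added after a 15 min room-temperature preincubation of ICE with inhibitor.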

[4] = In vivo rat clearance assay; conditions: plasma, iv, 10-20 mg/kg
Description: In Vivo Rat Clearance Assay
Cannulations of the jugular and carotid vessels of rats under anesthesia were performed one day prior to the pharmacokinetic study. M. J. Free, R. A. Jaffee; ‘Cannulation techniques for the collection blood and other bodily fluids’; in: Animal Models; p. 480-495; N. J. Alexander, Ed.; Academic Press; (1978). Drug (10 mg/mL) was administered via the jugular vein in a vehicle usually consisting of: propylene glycol/saline, containing 100 mM sodium bicarbonate in a 1:1 ratio. Animals were dosed with 10-20 mg drug/kg and blood samples were drawn at 0, 2, 5, 7, 10, 15, 20, 30, 60, and 90 minutes from an indwelling carotid catheter. The blood was centrifuged to plasma and stored at −20° C. until analysis. Pharmacokinetic analysis of data was performed by non-linear regression using standard software such as RStrip (MicroMath Software, UT) and/or Pcnonlin (SCI Software, NC) to obtain clearance values.
Rat plasma was extracted with an equal volume of acetonitrile (containing 0.1% TFA). Samples were then centrifuged at approximately 1,000×g and the supernatant analyzed by gradient HPLC. A typical assay procedure is described below.
A standard curve was run at 20, 10, 5, 2 and 1 μg/mL concentrations.

[5] = 0 h, administered 0 h relative to time of LPS challenge
[6] = 2 h, administered −2 h relative to time of LPS challenge
[7] = * = values obtained upon reassay

SMILES	melting point	clearance [3] [mL/min/kg]	pKi (ICE; Table 5)	pIC50 ([1]; Table 17)	pIC50 [1, 7]	also measured
CC(=O)Nc1ccc(C(=O)N[C@H]2CCC(=O)N3CCC[C@@H](C(=O)N[C@H]4CC(=O)OC4OCc4ccccc4)N3C2=O)cc1 (stereo partly drawn) [Compound 213x, [1S,9S(2RS,3S)]9-[4-(Acetylamino)benzoylamino]-N-(2-benzyloxy-5-oxo-tetrahydrofuran-3-yl)-6,10-dioxo-1,2,3,4,7,8,9,10-octahydro-6H-pyridazino[1,2-a][1,2]diazepine-1-carboximide]	150 to 170 °C	–	–	5.35	–	inhibition at 50 mg/kg [2, 5]: 78%; inhibition at 50 mg/kg [2, 6]: 0%; pIC50 (IL-1β, human whole blood): 5.60
CC(=O)Nc1ccc(C(=O)N[C@H]2CCC(=O)N3CCC[C@@H](C(=O)N[C@H](C=O)CC(=O)O)N3C2=O)cc1 [Compound 418]	–	13	8.66	–	–	clearance [4]: 5.9 mL/min/kg; inhibition at 50 mg/kg [2, 5]: 52%; inhibition at 50 mg/kg ([2]; 1 h, administered +1 h relative to time of LPS challenge): 64%; inhibition at 50 mg/kg [2, 6]: 25%
O=C(O)C[C@H](NC(=O)[C@@H]1CCCN2C(=O)CC[C@H](NC(=O)c3ccccc3)C(=O)N12)C(=O)CSc1nccs1 [Compound 510a, [3S(1S,9S)]3-(9-Benzoylamino-6,10-dioxo-1,2,3,4,7,8,9,10-octahydro-6H-pyridazino[1,2-a][1,2]diazepine-1-carboxamido)-5-(2-mercaptothiazole)-4-oxopentanoic acid]	–	–	–	6.70	–	clearance ([3]; Table 17): 267 mL/min/kg; pKi (ICE; Table 17): 7.19
O=C(O)C[C@H](NC(=O)[C@@H]1CCCN2C(=O)CC[C@H](NC(=O)c3ccccc3)C(=O)N12)C(=O)Cn1cnccc1=O [Compound 510d, [3S(1S,9S)]3-[6,10-Dioxo-1,2,3,4,7,8,9,10-octahydro-9-(phenycarbonylamino)-6H-pyridazino[1,2-a][1,2]diazepine-1-carboxamido]-4-oxo-5-{2-[4(3H)-pyrimidone]}pentanoic acid]	140 to 180 °C	–	–	< 4.70	–	pKi (ICE; Table 17): 5.64
CCOC1OC(=O)C[C@@H]1NC(=O)[C@@H]1CCCN2C(=O)CC[C@H](NC(=O)c3cc4ccccc4[nH]3)C(=O)N12 (stereo partly drawn) [Compound 550o, [1S,9S(2RS,3S)]6,10-Dioxo-N-(2-ethoxy-5-oxotetrahydrofuran-3-yl)-9-(2-indoloylamino)-1,2,3,4,7,8,9,10-octahydro-6H-pyridazino[1,2-a][1,2]diazepine-1-carboxamide]	155 to 170 °C	–	–	6.35	–	inhibition at 50 mg/kg [2, 5]: 64%; inhibition at 50 mg/kg [2, 6]: 19%; pIC50 (IL-1β, human whole blood): 5.52
O=C[C@H](CC(=O)O)NC(=O)CN1C(=O)[C@@H](NC(=O)c2ccccc2)CN(C(=O)c2ccccc2)c2ccccc21 [Compound 605c, (3S)-3-[(3S)-2-Oxo-3-benzoylamino-5-benzoyl-2,3,4,5-tetrahydro-1H-1,5-benzodiazepin-1-acetylamino]-4-oxo-butyric acid]	–	37	6.21	–	5.35	–

The next lines start with results.

melting point	clearance [3] [mL/min/kg]	pKi (ICE; Table 5)	SMILES	pIC50 ([1]; Table 17)	pIC50 [1, 7]	also measured
116 to 120 °C (dec.)	–	–	O=C(O)CC(NC(=O)Cn1c(Cc2ccccc2)ccc(NC(=O)CCc2ccccc2)c1=O)C(=O)COC(=O)c1c(Cl)cccc1Cl (centres unmarked) [Compound 57b, N-2-(6-Benzyl-1,2-dihydro-2-oxo-3-(3-phenylpropionyl)amino-1-pyridyl)acetyl-3-amino-5-(2,6-dichloro-benzoyloxy)-4-oxo-pentanoic acid]	–	–	–
–	> 100	7.00	CS(=O)(=O)N[C@H]1CCC(=O)N2CCC[C@@H](C(=O)N[C@@H](CC(=O)O)C(=O)c3nc4cc(Cl)cc(Cl)c4o3)N2C1=O [Compound 223b, [3S(1S,9S)]-4-(5,7-Dichlorobenzoxazol-2-yl)-3-(6,10-dioxo-9-methylsulphonylamino-1,2,3,4,7,8,9,10-octahydro-6H-pyridazino[1,2-a][1,2]diazepine-1-carboxamido)-4-oxobutanoic acid]	–	5.30	–
126 to 130 °C (dec.)	–	–	O=C[C@H](CC(=O)O)NC(=O)[C@@H]1CCCN2C(=O)CCN(NS(=O)(=O)c3ccc4ccccc4c3)C(=O)N12 [Compound 265a, [3S(4 S)]3-[6,10-Dioxo-7-(2-naphthalenesulfonyl)amino-1,2,3,4,7,8,9,10-octahydro-6H-pyridazino[1,2-a][1,2,4]triazepine-4-carboxamido]-4-oxobutanoic acid]	4.60	–	pKi (ICE; Table 17): 5.59
–	97	7.35	O=C[C@H](CC(=O)O)NC(=O)CN1C(=O)[C@@H](NC(=O)c2ccccc2)CN(C(=O)Cc2ccccc2)c2ccccc21 [Compound 605b, (3S)-3-[(3S)-2-Oxo-3-benzoylamino-5-phenylacetyl-2,3,4,5-tetrahydro-1H-1,5-benzodiazepin-1-acetylamino]-4-oxo-butyric acid]	–	5.00	–
–	33	7.02	CC(=O)N1C[C@H](NC(=O)c2ccccc2)C(=O)N(CC(=O)N[C@H](C=O)CC(=O)O)c2ccccc21 [Compound 605d, (3S)-3-[(3S)-2-Oxo-3-benzoylamino-5-acetyl-2,3,4,5-tetrahydro-1H-1,5-benzodiazepin-1-acetylamino]-4-oxo-butyric acid]	–	5.29	–
–	71	6.96	COC(=O)N1C[C@H](NC(=O)c2ccccc2)C(=O)N(CC(=O)N[C@H](C=O)CC(=O)O)c2ccccc21 [Compound 605j, (3S)-3-[(3S)-2-Oxo-3-benzoylamino-5-methoxycarbonyl-2,3,4,5-tetrahydro-1H-1,5-benzodiazepin-1-acetylamino]-4-oxo-butyric acid]	–	5.06	–
